The values that follow come from the supplement of paper PMC8967900.

Each structure is given as a SMILES string.
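Note: ALL cell lines in 384-well plates, five doses spanning 10,000-fold, each plate scaled between vehicle and 100 µmol/L benzalkonium chloride controls, sDSS an adapted area-under-curve metric.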

For the first experiment, the system named is HPB-ALL. In words: selective drug sensitivity score (sDSS, relative to normal bone marrow) (sDSS (score)); higher = more potent and effective on the cell line relative to normal bone marrow cells. The conditions noted are these: 72 h.
Regarding `Cn1cc(-c2ccc(F)c(C(F)(F)F)c2)nc1C1CCN(c2ncnc3[nH]ncc23)CC1` (top concentration 10000 nM), the “selective drug sensitivity score” value is -0.14.
Still for that read-out and setting: then `O=C(Nc1ccc2[nH]nc(-c3ccncc3)c2c1)[C@@H]1CCN(CC(=O)N2CCN(c3ccc(-c4ncccn4)cc3)CC2)C1` (top concentration 10000 nM), with -0.44; and `CC(C)(C)c1cc(NC(=O)Nc2ccc(Oc3ccnc4[nH]c(=O)cnc34)cc2F)n(-c2ccccc2)n1` (top concentration 25000 nM), with 1.12.
On the same count and under the same terms, as for `Nc1ncnc2c1nc(N)n2[C@@H]1O[C@H](CO)[C@@H](O)[C@H]1O` [8-amino-adenosine] (top concentration 50000 nM), the figure is -3.82; as for `CC(C)[C@@H](CS(=O)(=O)C(C)C)N1C(=O)[C@@](C)(CC(=O)O)C[C@H](c2cccc(Cl)c2)[C@H]1c1ccc(Cl)cc1` [AMG-232] (top concentration 10000 nM), -9.34; as for `CC(C)[C@H](C(=O)Nc1ccc(C(=O)NO)cc1)c1ccccc1` [AR-42] (top concentration 10000 nM), 9.78.
As to `O=C(Nc1c[nH]nc1-c1nc2ccc(CN3CCOCC3)cc2[nH]1)NC1CC1` [AT9283] (top concentration 1000 nM), the “selective drug sensitivity score” value was -1.48.
Take `CCN(CCO)CCCOc1ccc2c(Nc3cc(CC(=O)Nc4cccc(F)c4)[nH]n3)ncnc2c1` [AZD1152-HQPA] (top concentration 1000 nM): the “selective drug sensitivity score” value amounted to 4.34.
Take `Cc1[nH]nc(C(F)(F)F)c1Cc1sc2c(c1C(=O)N1C[C@](C)(O)CO1)c(=O)n(C)c(=O)n2C(C)C` [AZD3965] (top concentration 1000 nM): the “selective drug sensitivity score” value is 0.1.

In the next experiment the test system is MOLT-16. Described as above. To be noted: 72 h.
As to `COC12C(COC(N)=O)C3=C(C(=O)C(C)=C(N)C3=O)N1CC1NC12` (stereo in doubt) [Mitomycin_C] (top concentration 10000 nM), the “selective drug sensitivity score” value was -2.86.
On the same count and under the same terms, as for `Cc1c(-c2c(-c3ccc(F)o3)sc3ncnc(O[C@H](Cc4ccccc4OCc4ccnn4CC(F)(F)F)C(=O)O)c23)ccc(OCCN2CCN(C)CC2)c1Cl` (top concentration 1000 nM), the figure is 7.46.
`Cc1ncc(Cl)cc1NCc1ccc(C(=O)N[C@@H](CC2CCCC2)C(=O)NC2CC2)s1` (top concentration 5000 nM): the “selective drug sensitivity score” value worked out at 3.96.
Still for that read-out and setting: then `CCn1c(-c2nonc2N)nc2c(C#CC(C)(C)O)ncc(OC[C@H]3CCCNC3)c21` (top concentration 10000 nM), with 11.6; and `CN(c1ncccc1CNc1nc(Nc2ccc3c(c2)CC(=O)N3)ncc1C(F)(F)F)S(C)(=O)=O` (top concentration 10000 nM), with 2.82; and `CNc1ncc2cc(-c3cc(NC(=O)NCCC(C)(C)C)c(F)cc3C)c(C)nc2n1` (top concentration 10000 nM), with 5.06.
On the same count and under the same terms, then `C[C@@]1(C(=O)Nc2ccc(F)nc2)CCCN1c1nc(Nc2cc(C3CC3)n[nH]2)c2cccn2n1` (top concentration 10000 nM), with 12.5.
On the same count and under the same terms, then `Cc1nc(Nc2n[nH]c3c2CN(C(=O)N[C@H](CN(C)C)c2ccccc2)C3(C)C)c2sccc2n1` (top concentration 10000 nM), with 22.7; and `Cn1cc(-c2[nH]c3cc(NC(=O)[C@H](N)C4CCCCC4)cc4c3c2C=NNC4=O)cn1` (top concentration 10000 nM), with 9.68.
Consider `Cn1cc(-c2ccc(F)c(C(F)(F)F)c2)nc1C1CCN(c2ncnc3[nH]ncc23)CC1` (top concentration 10000 nM), for which the “selective drug sensitivity score” value came to 0.36.
Still for that read-out and setting: then `O=C(Nc1ccc2[nH]nc(-c3ccncc3)c2c1)[C@@H]1CCN(CC(=O)N2CCN(c3ccc(-c4ncccn4)cc3)CC2)C1` (top concentration 10000 nM), with 1.06.
Same read-out and setting: as for `CC(C)(C)c1cc(NC(=O)Nc2ccc(Oc3ccnc4[nH]c(=O)cnc34)cc2F)n(-c2ccccc2)n1` (top concentration 25000 nM), the figure is -1.08; as for `Nc1ncnc2c1nc(N)n2[C@@H]1O[C@H](CO)[C@@H](O)[C@H]1O` [8-amino-adenosine] (top concentration 50000 nM), 5.68.
On the same count and under the same terms, as for `CC(C)[C@@H](CS(=O)(=O)C(C)C)N1C(=O)[C@@](C)(CC(=O)O)C[C@H](c2cccc(Cl)c2)[C@H]1c1ccc(Cl)cc1` [AMG-232] (top concentration 10000 nM), the figure is 8.06.
As to `CC(C)[C@H](C(=O)Nc1ccc(C(=O)NO)cc1)c1ccccc1` [AR-42] (top concentration 10000 nM), the “selective drug sensitivity score” value stood at 8.38.
The same measure, in the same setting: then `O=C(Nc1c[nH]nc1-c1nc2ccc(CN3CCOCC3)cc2[nH]1)NC1CC1` [AT9283] (top concentration 1000 nM), with 8.22; and `CCN(CCO)CCCOc1ccc2c(Nc3cc(CC(=O)Nc4cccc(F)c4)[nH]n3)ncnc2c1` [AZD1152-HQPA] (top concentration 1000 nM), with 27.7.
With `Cc1[nH]nc(C(F)(F)F)c1Cc1sc2c(c1C(=O)N1C[C@](C)(O)CO1)c(=O)n(C)c(=O)n2C(C)C` [AZD3965] (top concentration 1000 nM), the “selective drug sensitivity score” value came to 0.

The test system of another experiment is NALM-6. The experiment is described as above. To be noted: 72 h.
`COC12C(COC(N)=O)C3=C(C(=O)C(C)=C(N)C3=O)N1CC1NC12` (stereo in doubt) [Mitomycin_C] (top concentration 10000 nM): the “selective drug sensitivity score” value was -2.86.
Still for that read-out and setting: as for `Cc1c(-c2c(-c3ccc(F)o3)sc3ncnc(O[C@H](Cc4ccccc4OCc4ccnn4CC(F)(F)F)C(=O)O)c23)ccc(OCCN2CCN(C)CC2)c1Cl` (top concentration 1000 nM), the figure is -3.44; as for `Cc1ncc(Cl)cc1NCc1ccc(C(=O)N[C@@H](CC2CCCC2)C(=O)NC2CC2)s1` (top concentration 5000 nM), -0.94; as for `CCn1c(-c2nonc2N)nc2c(C#CC(C)(C)O)ncc(OC[C@H]3CCCNC3)c21` (top concentration 10000 nM), 8.78.
For `CN(c1ncccc1CNc1nc(Nc2ccc3c(c2)CC(=O)N3)ncc1C(F)(F)F)S(C)(=O)=O` (top concentration 10000 nM), the “selective drug sensitivity score” value came to 5.22.
On the same count and under the same terms, as for `CNc1ncc2cc(-c3cc(NC(=O)NCCC(C)(C)C)c(F)cc3C)c(C)nc2n1` (top concentration 10000 nM), the figure is 6.66; as for `C[C@@]1(C(=O)Nc2ccc(F)nc2)CCCN1c1nc(Nc2cc(C3CC3)n[nH]2)c2cccn2n1` (top concentration 10000 nM), 4.08; as for `Cc1nc(Nc2n[nH]c3c2CN(C(=O)N[C@H](CN(C)C)c2ccccc2)C3(C)C)c2sccc2n1` (top concentration 10000 nM), 1.18.
The same measure, in the same setting: then `Cn1cc(-c2[nH]c3cc(NC(=O)[C@H](N)C4CCCCC4)cc4c3c2C=NNC4=O)cn1` (top concentration 10000 nM), with 6.28; and `Cn1cc(-c2ccc(F)c(C(F)(F)F)c2)nc1C1CCN(c2ncnc3[nH]ncc23)CC1` (top concentration 10000 nM), with -0.14; and `O=C(Nc1ccc2[nH]nc(-c3ccncc3)c2c1)[C@@H]1CCN(CC(=O)N2CCN(c3ccc(-c4ncccn4)cc3)CC2)C1` (top concentration 10000 nM), with 4.76.
Consider `CC(C)(C)c1cc(NC(=O)Nc2ccc(Oc3ccnc4[nH]c(=O)cnc34)cc2F)n(-c2ccccc2)n1` (top concentration 25000 nM), for which the “selective drug sensitivity score” value is -0.98.
On to `Nc1ncnc2c1nc(N)n2[C@@H]1O[C@H](CO)[C@@H](O)[C@H]1O` [8-amino-adenosine] (top concentration 50000 nM), for which the “selective drug sensitivity score” value stood at 6.68.
On to `CC(C)[C@@H](CS(=O)(=O)C(C)C)N1C(=O)[C@@](C)(CC(=O)O)C[C@H](c2cccc(Cl)c2)[C@H]1c1ccc(Cl)cc1` [AMG-232] (top concentration 10000 nM), for which the “selective drug sensitivity score” value is 7.96.
On to `CC(C)[C@H](C(=O)Nc1ccc(C(=O)NO)cc1)c1ccccc1` [AR-42] (top concentration 10000 nM), for which the “selective drug sensitivity score” value came out at 4.48.
The same measure, in the same setting: as for `O=C(Nc1c[nH]nc1-c1nc2ccc(CN3CCOCC3)cc2[nH]1)NC1CC1` [AT9283] (top concentration 1000 nM), the figure is 6.82.
On the same count and under the same terms, then `CCN(CCO)CCCOc1ccc2c(Nc3cc(CC(=O)Nc4cccc(F)c4)[nH]n3)ncnc2c1` [AZD1152-HQPA] (top concentration 1000 nM), with 8.94; and `Cc1[nH]nc(C(F)(F)F)c1Cc1sc2c(c1C(=O)N1C[C@](C)(O)CO1)c(=O)n(C)c(=O)n2C(C)C` [AZD3965] (top concentration 1000 nM), with 11.1.
